Data from patent US20220363719A1, “Reverse Amide-Linked Melanocortin Receptor-Specific Cyclic Peptides” (Palatin Technologies, Inc., priority 2020, published 2022).
Where a SMILES comes first, the peptide text is derived from it. Bridges are numbered along the chain shown (N, C = ends). [ ]: non-standard residue; d: D form. The star is where a group is joined. ξ: configuration not given here. d1Nal = N[C@H](Cc1cccc2ccccc12)C(=O)O; Nle = CCCC[C@H](N)C(=O)O; Orn = NCCC[C@H](N)C(=O)O; Dab = NCC[C@H](N)C(=O)O; ξHyp = O=C(O)C1CC(O)CN1; Dap = NC[C@H](N)C(=O)O; Hexanoyl = CCCCCC(=O)*; Ahx = NCCCCCC(=O)O; Bn = c1ccc(C*)cc1; GABA = NCCCC(=O)O; βAla = NCCC(=O)O

Tests used:
Type in all cases: cell-based
hMC3r = hMC3r (Homo sapiens, UniProt P41968); assay: Alternative assay for agonist activity (intracellular cAMP), HEK-293 cells, recombinant MC3r; design: expressed in transfected cells; host or cells: HEK-293; conditions: for Emax: HEK293, not CEREP, reference NDP-α-MSH, read-out: Emax percent hMC3r (percent of the maximal response obtained with the positive control); for EC50: not CEREP, cAMP HTRF
Protocol: (§1) Accumulation of intracellular cAMP was examined as a measure of the ability of the peptides to elicit a functional response in either HEK-293 cells that express recombinant MC3r or MC4r or B16-F10 (mouse) and HBL (human) cell lines that express native MC1 r. Confluent cells were detached from culture plates by incubation in enzyme-free cell dissociation buffer. Dispersed cells were suspended in Hank's Balanced Salt Solution containing 10 mM HEPES (pH 7.5), 1 mM MgCl2, 1 mM glutamine, 0.5% albumin and 0.3 mM 3-isobutyl-1-methyl-xanthine (IBMX), a phosphodiesterase inhibitor. The cells were dispensed into 96-well plates at a density of 0.5×10^5 cells per well and pre-incubated for 10 minutes. Cells were exposed for 15 minutes at 37° C. to peptides dissolved in DMSO (final DMSO concentration of 1%) at a concentration range of 0.05-5000 nM in a total assay volume of 200 μL. NDP-α-MSH was used as the reference agonist. cAMP levels were determined by an HTRF® cAMP cell-based assay system from Cisbio Bioassays utilizing cryptate-labeled anti-cAMP and D2-labeled cAMP, with plates read on a Perkin-Elmer Victor plate reader at […]. Data analysis was performed by nonlinear regression analysis with Graph-Pad Prism® software. The maximum efficacies of the test peptides were compared to that achieved by the reference melanocortin agonist NDP-α-MSH.

mMC1r [1] = target: T1, mMC1r (Mus musculus, UniProt Q01727); assay: Alternative assay for agonist activity (intracellular cAMP), B16-F10 cells, native MC1r; design: B16-F10 (mouse) and HBL (human) cell lines that express native MC1 r; endogenous in cells; host or cells: B16-F10 mouse melanoma cells; conditions: not CEREP; for EC50: cAMP HTRF; for Emax: reference NDP-α-MSH, read-out: Emax percent mMC1r (percent of the maximal response obtained with the positive control)
Protocol: as §1

hMC4r = hMC4r (Homo sapiens, UniProt P32245); assay: Alternative assay for agonist activity (intracellular cAMP), HEK-293 cells, recombinant MC4r; design: expressed in transfected cells; host or cells: HEK-293; conditions: for Emax: HEK293, not CEREP, reference NDP-α-MSH, read-out: Emax percent hMC4r (percent of the maximal response obtained with the positive control); for EC50: not CEREP, cAMP HTRF
Protocol: as §1

hMC5r = target: T2, hMC5r (Homo sapiens, UniProt P33032); assay: cAMP agonist activity assay performed at CEREP (HTRF), MC5; conditions: determined by CEREP, CHO-K1 cells; for EC50: cAMP HTRF; for Emax: control Alpha-MSH, read-out: Emax percent hMC5r* (percent of the maximal response obtained with the positive control)
T2 construct: Eurofins CEREP SA
Protocol: (§2) Evaluation of the agonist activity of compounds at the melanocortin receptors was determined by measuring their effects on cAMP production using the HTRF detection method at CEREP (Eurofins CEREP SA, Celle-Lévescault, France). The cells were suspended in HBSS buffer (Invitrogen) complemented with 20 mM HEPES (pH 7.4) and 500 μM IBMX, then distributed in microplates and incubated in the presence of HBSS (basal control), the test compound or the reference agonist. Incubation time, temperature, cell number, reference agonist and cell line information are included in the Table 1 below. For stimulated control measurement, separate assay wells contain reference compound. Following incubation, the cells are lysed and the fluorescence acceptor (D2-labeled cAMP) and fluorescence donor (anti-cAMP antibody labeled with europium cryptate) were added. After 60 minutes at room temperature, the fluorescence transfer was measured at excitation wavelength 337 nm and emission wavelengths 620 and 665 nm using a microplate reader (Envision, Perkin Elmer). The cAMP concentration was determined by dividing the signal measured at 665 nm by that measured at 620 nm (ratio).
(§3) The results are expressed as a percent of the control response to 1 μM of the reference. The standard reference agonist is tested in each experiment at several concentrations to generate a concentration-response curve from which its EC50 value is calculated.

hMC1r = target: T3, hMC1r (Homo sapiens, UniProt Q01726); assay: Alternative assay for agonist activity (intracellular cAMP), HBL cells, native MC1r; conditions: not CEREP
T3 construct: B16-F10 (mouse) and HBL (human) cell lines that express native MC1 r; endogenous in cells; host or cells: HBL human melanoma cells
Protocol: as §1

mMC1r [2] = target: T1, mMC1r; assay: cAMP agonist activity assay performed at CEREP (HTRF), MC1; conditions: determined by CEREP, B16-F1 cells
Protocol: as §2, §3

Chain of hMC3r (P41968 whole entry): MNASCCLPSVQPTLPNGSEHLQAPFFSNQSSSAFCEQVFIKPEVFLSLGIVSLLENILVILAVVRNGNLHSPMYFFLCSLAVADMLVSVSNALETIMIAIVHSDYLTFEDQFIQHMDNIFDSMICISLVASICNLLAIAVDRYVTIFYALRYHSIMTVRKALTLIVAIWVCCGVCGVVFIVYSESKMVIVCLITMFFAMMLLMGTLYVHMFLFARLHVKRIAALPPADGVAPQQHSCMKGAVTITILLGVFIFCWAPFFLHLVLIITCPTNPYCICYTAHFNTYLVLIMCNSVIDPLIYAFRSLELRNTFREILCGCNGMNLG
T2 sequence (P33032 whole entry): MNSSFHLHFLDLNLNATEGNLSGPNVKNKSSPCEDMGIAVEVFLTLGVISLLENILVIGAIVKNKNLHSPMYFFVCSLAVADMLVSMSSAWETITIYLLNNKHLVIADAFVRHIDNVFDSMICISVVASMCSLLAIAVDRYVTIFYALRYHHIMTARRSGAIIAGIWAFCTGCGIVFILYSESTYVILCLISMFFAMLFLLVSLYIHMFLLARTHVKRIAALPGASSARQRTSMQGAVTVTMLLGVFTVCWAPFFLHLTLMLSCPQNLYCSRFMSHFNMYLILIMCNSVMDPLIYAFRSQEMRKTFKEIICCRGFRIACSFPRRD
T1 sequence (Q01727 whole entry): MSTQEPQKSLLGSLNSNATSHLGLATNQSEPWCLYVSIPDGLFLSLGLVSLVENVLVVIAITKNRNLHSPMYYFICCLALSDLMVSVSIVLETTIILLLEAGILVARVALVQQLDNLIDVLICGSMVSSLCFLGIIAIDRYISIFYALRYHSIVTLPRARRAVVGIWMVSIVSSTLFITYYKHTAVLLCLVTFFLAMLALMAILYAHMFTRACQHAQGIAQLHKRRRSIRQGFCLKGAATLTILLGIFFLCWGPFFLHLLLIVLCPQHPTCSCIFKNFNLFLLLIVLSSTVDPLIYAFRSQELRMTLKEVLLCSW
Chain of hMC4r (P32245 whole entry): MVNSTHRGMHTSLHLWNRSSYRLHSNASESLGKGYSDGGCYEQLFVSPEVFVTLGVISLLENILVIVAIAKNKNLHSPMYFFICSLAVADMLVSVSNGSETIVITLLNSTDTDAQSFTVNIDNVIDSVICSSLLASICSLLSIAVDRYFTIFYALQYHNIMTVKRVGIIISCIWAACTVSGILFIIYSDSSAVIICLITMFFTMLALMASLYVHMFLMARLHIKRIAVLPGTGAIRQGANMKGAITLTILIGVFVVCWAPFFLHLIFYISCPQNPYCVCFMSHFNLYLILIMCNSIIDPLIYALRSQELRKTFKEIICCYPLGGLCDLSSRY
T3 sequence (Q01726 whole entry): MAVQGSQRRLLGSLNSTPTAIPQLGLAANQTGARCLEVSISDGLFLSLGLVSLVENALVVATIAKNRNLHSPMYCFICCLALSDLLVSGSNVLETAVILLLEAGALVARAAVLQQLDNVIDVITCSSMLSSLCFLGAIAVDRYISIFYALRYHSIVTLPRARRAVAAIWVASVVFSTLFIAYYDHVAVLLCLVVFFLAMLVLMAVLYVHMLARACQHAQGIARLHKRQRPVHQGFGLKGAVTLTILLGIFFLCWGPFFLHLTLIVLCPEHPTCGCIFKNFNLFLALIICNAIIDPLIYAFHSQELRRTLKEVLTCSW

Emax (hMC3r)	EC50 (hMC3r)	EC50 (mMC1r [1])	Emax (mMC1r [1])	Emax (hMC4r)	EC50 (hMC4r)	EC50 (hMC5r)	Emax (hMC5r)	EC50 (hMC1r; cAMP HTRF)	Emax (hMC1r; reference NDP-α-MSH, read-out: Emax percent hMC1r (percent of the maximal response obtained with the positive control))	EC50 (mMC1r [2]; cAMP HTRF)	Emax (mMC1r [2]; control NDP-alpha-MSH, read-out: Emax percent mMC1r* (percent of the maximal response obtained with the positive control))	Structure (SMILES)
101%	0.4 nM	1 nM	80%	87%	0.27 nM	> 10000 nM	25%	–	–	–	–	CC(=O)N[C@@H](CCCNC(=N)N)C(=O)N[C@H]1CCCNC(=O)CCCNC(=O)[C@H](Cc2c[nH]c3ccccc23)NC(=O)[C@H](CCCNC(=N)N)NC(=O)[C@@H](Cc2ccccc2)NC(=O)[C@H](Cc2c[nH]cn2)NC1=O [Peptide 13]
6%	> 10000 nM	521 nM	34%	36%	87 nM	–	–	–	–	–	–	CCCC[C@H](NC(C)=O)C(=O)N[C@H]1CNC(=O)CNC(=O)[C@H](Cc2c[nH]c3ccccc23)NC(=O)[C@H](CCCNC(=N)N)NC(=O)[C@@H](Cc2cccc3ccccc23)NC(=O)C2CC(OCc3ccccc3)CN2C1=O (stereo partly shown) [Peptide 6] (Ac-[Nle][Dap][ξHyp](Bn)[d1Nal]RWG; lactam 2-C)
106%	0.2 nM	0.79 nM	111%	83%	0.15 nM	> 10000 nM	22%	–	–	–	–	CC(=O)N[C@@H](CCCNC(=N)N)C(=O)N[C@H]1CCCCNC(=O)CCNC(=O)[C@H](Cc2c[nH]c3ccccc23)NC(=O)[C@H](CCCNC(=N)N)NC(=O)[C@@H](Cc2ccccc2)NC(=O)[C@H](Cc2c[nH]cn2)NC1=O [Peptide 14] (Ac-RKH[dF]RW[βAla]; lactam 2-C)
48%	55 nM	206 nM	95%	116%	2 nM	> 10000 nM	20%	–	–	–	–	CC(=O)N[C@@H](CCCNC(=N)N)C(=O)N[C@H]1CNC(=O)CCCCCNC(=O)[C@H](Cc2c[nH]c3ccccc23)NC(=O)[C@H](CCCNC(=N)N)NC(=O)[C@@H](Cc2ccccc2)NC(=O)[C@H](CC(N)=O)NC1=O [Peptide 12] (Ac-R[Dap]N[dF]RW[Ahx]; lactam 2-C)
104%	0.5 nM	0.9 nM	79%	105%	0.22 nM	> 10000 nM	32%	–	–	–	–	CC(=O)N[C@@H](CCCNC(=N)N)C(=O)N[C@H]1CCNC(=O)CCCCNC(=O)[C@H](Cc2c[nH]c3ccccc23)NC(=O)[C@H](CCCNC(=N)N)NC(=O)[C@@H](Cc2ccccc2)NC(=O)[C@H](Cc2c[nH]cn2)NC1=O [Peptide 9]
90%	2 nM	140 nM	102%	94%	0.3 nM	140 nM	44%	–	–	–	–	CC(=O)N[C@@H](CCCNC(=N)N)C(=O)N[C@H]1CCCCNC(=O)CCNC(=O)[C@H](Cc2c[nH]c3ccccc23)NC(=O)[C@H](CCCNC(=N)N)NC(=O)[C@@H](Cc2ccccc2)NC(=O)[C@H](CC(N)=O)NC1=O [Peptide 15] (Ac-RKN[dF]RW[βAla]; lactam 2-C)
75%	20 nM	230 nM	74%	101%	1 nM	> 10000 nM	41%	–	–	–	–	CC(=O)N[C@@H](CCCNC(=N)N)C(=O)N[C@H]1CCCNC(=O)CCCNC(=O)[C@H](Cc2c[nH]c3ccccc23)NC(=O)[C@H](CCCNC(=N)N)NC(=O)[C@@H](Cc2ccccc2)NC(=O)[C@H](CC(N)=O)NC1=O [Peptide 8] (Ac-R[Orn]N[dF]RW[GABA]; lactam 2-C)
12%	> 10000 nM	1000 nM	84%	14%	7800 nM	> 10000 nM	-0.5%	10 nM	94%	1300 nM	83%	CCCCCC(=O)N[C@H]1CNC(=O)CNC(=O)[C@H](CCCNC(=N)N)NC(=O)[C@@H](Cc2ccccc2)NC(=O)[C@H](Cc2c[nH]cn2)NC1=O [Peptide 17] (Hexanoyl-[Dap]H[dF]RG; lactam 1-C)
10%	> 10000 nM	26 nM	67%	38%	15 nM	10 nM	118%	–	–	–	–	CCCC[C@H](NC(C)=O)C(=O)N[C@H]1CCCNC(=O)CNC(=O)[C@H](Cc2c[nH]c3ccccc23)NC(=O)[C@H](CCCNC(=N)N)NC(=O)[C@@H](Cc2cccc3ccccc23)NC(=O)C2CC(OCc3ccccc3)CN2C1=O (stereo partly shown) [Peptide 4] (Ac-[Nle][Orn][ξHyp](Bn)[d1Nal]RWG; lactam 2-C)
98%	7 nM	2 nM	93%	99%	0.19 nM	> 10000 nM	13%	–	–	–	–	CC(=O)N[C@@H](CCCNC(=N)N)C(=O)N[C@H]1CNC(=O)CCCCCNC(=O)[C@H](Cc2c[nH]c3ccccc23)NC(=O)[C@H](CCCNC(=N)N)NC(=O)[C@@H](Cc2ccccc2)NC(=O)[C@H](Cc2c[nH]cn2)NC1=O [Peptide 11]
5%	> 10000 nM	5 nM	75%	32%	11 nM	0.74 nM	77%	–	–	–	–	CCCC[C@H](NC(C)=O)C(=O)N[C@H]1CCNC(=O)CCNC(=O)[C@H](Cc2c[nH]c3ccccc23)NC(=O)[C@H](CCCNC(=N)N)NC(=O)[C@@H](Cc2cccc3ccccc23)NC(=O)C2CC(OCc3ccccc3)CN2C1=O (stereo partly shown) [Peptide 5] (Ac-[Nle][Dab][ξHyp](Bn)[d1Nal]RW[βAla]; lactam 2-C)
12%	> 10000 nM	2 nM	67%	31%	5 nM	0.2 nM	93%	–	–	–	–	CCCC[C@H](NC(C)=O)C(=O)N[C@H]1CCCNC(=O)CCNC(=O)[C@H](Cc2c[nH]c3ccccc23)NC(=O)[C@H](CCCNC(=N)N)NC(=O)[C@@H](Cc2cccc3ccccc23)NC(=O)C2CC(OCc3ccccc3)CN2C1=O (stereo partly shown) [Peptide 3] (Ac-[Nle][Orn][ξHyp](Bn)[d1Nal]RW[βAla]; lactam 2-C)
14%	> 10000 nM	2 nM	61%	33%	5 nM	0.23 nM	96%	–	–	–	–	CCCC[C@H](NC(C)=O)C(=O)N[C@H]1CCCCNC(=O)CCNC(=O)[C@H](Cc2c[nH]c3ccccc23)NC(=O)[C@H](CCCNC(=N)N)NC(=O)[C@@H](Cc2cccc3ccccc23)NC(=O)C2CC(OCc3ccccc3)CN2C1=O (stereo partly shown) [Peptide 2] (Ac-[Nle]K[ξHyp](Bn)[d1Nal]RW[βAla]; lactam 2-C)
